One assay concerns the target T1, Bombesin Receptor (Mus musculus, UniProt P21729).
T1 construct: Pancreata from mice were chopped at 350 μm with a tissue chopper and pooled; from tissue; host or cells: chopped mouse pancreas
The assay can be described thus: Phosphatidylinositol turnover in chopped mouse pancreas. Format: cell-based. Also on record: key to PI Turnover Agonist: (+) represents agonist activity; (-) indicates no agonist activity. The following applies: for PI Turnover % Inhibition: antagonist activity, referenced to the stimulation produced by 100 nM GRP. The method, then: Pancreata from mice were chopped at 350 μm with a tissue chopper and pooled. The chopped tissue was washed twice with oxygenated Krebs-Hepes, then incubated for 30 minutes in 37° C. oxygenated Krebs-Hepes buffer with fresh buffer after 15 minutes. The tissue was then incubated in this buffer containing 200 μCi of [^3 H] inositol at 37° C. for 1 hour. The tissue was then washed twice and incubated for another 30 minutes in oxygenated Krebs-Hepes (containing 10 mM Li^+) at 37° C. with a fresh buffer change after 15 minutes. Portions of the tissue mass (approximately 10 mg per assay tube) were then placed in Li^+ buffer with protease inhibitors, (40 μg/ml bacitracin, 4 μg/ml leupeptin, 4 μg/ml chymostatin, 8 μg/ml thiorphan), 0.1% BSA, and 0.1-10 μM peptide in a final volume of 250 μl. After 60 minutes at room temperature, the phosphatidylinositol turnover was terminated by the addition of 940 μl chloroform:methanol (1:2), followed by 310 μl chloroform, followed by 310 μl water. Each tube was then vortexed for 5 seconds and then centrifuged at 2500 x g for 10 minutes to separate the phases. 50 μl of the bottom phase (chloroform) was withdrawn from each tube and placed in a counting vial, dried, and counted in scintillation fluid. 900 μl of the top (aqueous) phase were then mixed with 2.1 ml water and loaded onto a 0.5 ml Biorad AG-1X8 (formate) ion exchange column. The material on the columns was washed in order with: 1) 10 ml of water 2) 5 ml of 5 mM disodium tetraborate/60 mM sodium formate 3) 10 ml of 1 M ammonium formate in 0.1 M formic acid. The final (third) wash was collected and one ml was mixed with 14 ml of Bio-Safe scintillant and counted. The ratio of these counts (total inositol phosphates) to the corresponding organic phase counts (inositol incorporated into the tissue) was then calculated for each sample. The ratios in the presence of test compound and/or standards were then compared to the ratios for control tubes (i.e., no stimulating agonist). The abilities of test compounds to stimulate phosphatidyl-inositol turnover were determined with the aid of a computer program. […] The ordinate (y-axis) indicates the observed PI turnover as a percentage of control. Values are mean±standard error of triplicate determinations.

Another assay concerns the target T2, bombesin/GRP receptor (Mus musculus, UniProt P21729).
T2 construct: The pancreata from one or more mice were pooled and homogenized; from tissue; host or cells: mouse pancreas membranes
The assay can be described thus: Competition for 125I-GRP binding to murine pancreatic membranes. As to the method: The pancreata from one or more mice were pooled and homogenized in 50 mM HEPES (pH 7.4) containing 120 mM NaCl, 5 mM KCl, 1 mM EDTA and protease inhibitors (1 μg/ml aprotinin, leupeptin, pepstatin; 4 μg/ml bacitracin, antipain, bestatin; 100 μM PMSF) at 4° C. and centrifuged at 37,500 X g for 15 minutes. The pellet was resuspended in 50 mM HEPES (pH 7.4) containing 10 mM EDTA, 300 mM KCl, and protease inhibitors, and then incubated for 30 minutes at 4° C. The suspension was centrifuged as above and the pellet was washed two times in 50 mM HEPES (pH 7.4) containing 8 μg/ml thiorphan and protease inhibitors, and again centrifuged. The tissue was then resuspended in incubation buffer (1 ml per 4 mg pancreas) and incubated for 15 minutes at room temperature, then 250 μl were added to each assay tube to commence the assay. […] The assay was allowed to proceed to equilibrium for 90 minutes at room temperature. After this time, the contents of each tube was rapidly filtered over Whatman GF/B filters presoaked in 0.1% polyethyleneimine and the filters were rapidly washed three times with ice-cold 50 mM HEPES (pH 7.4). Filter-bound radioactivity was quantitated in a gamma counter. […] Affinity and maximal binding were calculated with LIGAND (Biosoft, Cambridge, UK) (FIGS. 1 and FIG. 2)
The abscissa (x-axis) logarithmically indicates the concentration of agonists being tested.

[1] abbreviates: competitive binding, mouse pancreas, averages of multiple experiments, read-out: Kd.

Each structure is given as a SMILES string. pKd: −log10 of the molar value. Like-named read-outs stand apart in the source and are kept apart here. Where a SMILES comes first, the peptide text is derived from it. [ ]: non-standard residue; d: D form. The star is where a group is joined. X2 = CC(C)C[C@@H](CN[C@@H](CC(C)C)C(N)=O)N*; Palmitoyl = CCCCCCCCCCCCCCCC(=O)*; pGlu = O=C1CC[C@@H](C(=O)O)N1; Lauroyl = CCCCCCCCCCCC(=O)*; Octanoyl = CCCCCCCC(=O)*

A word on the pKd: it is the Kd on a negative log10 scale, so that one unit is a factor of ten.

T2 sequence (P21729 whole entry): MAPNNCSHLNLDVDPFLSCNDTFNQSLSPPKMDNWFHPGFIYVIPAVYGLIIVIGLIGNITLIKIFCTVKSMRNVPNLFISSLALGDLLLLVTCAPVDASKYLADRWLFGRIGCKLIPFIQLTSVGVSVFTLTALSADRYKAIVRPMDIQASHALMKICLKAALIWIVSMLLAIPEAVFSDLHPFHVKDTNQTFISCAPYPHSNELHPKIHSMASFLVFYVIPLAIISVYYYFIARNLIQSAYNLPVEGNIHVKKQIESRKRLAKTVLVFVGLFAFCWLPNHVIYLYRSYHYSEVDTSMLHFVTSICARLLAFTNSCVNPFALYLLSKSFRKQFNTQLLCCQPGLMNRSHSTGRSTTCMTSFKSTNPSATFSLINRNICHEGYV
T1 sequence (P21729 whole entry): as above

On to `CC(C)C[C@@H](C(N)=O)[S+]([O-])C[C@H](Cc1ccccc1)NC(=O)[C@H](Cc1c[nH]cn1)NC(=O)CNC(=O)[C@@H](NC(=O)[C@H](C)NC(=O)[C@H](Cc1c[nH]c2ccccc12)NC(=O)[C@H](CCC(N)=O)NC(=O)[C@@H]1CCC(=O)N1)C(C)C` (single isomer, unassigned) [[Phe^8 .psi.[CH2 S(O)]Leu^9 ]litorin II] [pGlu--Gln--Trp--Ala--Val--Gly--His--Phe.psi.[CH2 S(O)]Leu--NH2], for which the “PI Turnover % Inhibition” value at Bombesin Receptor was determined as 83%.

In the case of `CC(C)C[C@@H](C(N)=O)[S+]([O-])C[C@H](Cc1ccccc1)NC(=O)[C@H](Cc1c[nH]cn1)NC(=O)CNC(=O)[C@@H](NC(=O)[C@H](C)NC(=O)[C@H](Cc1c[nH]c2ccccc12)NC(=O)[C@H](CCC(N)=O)NC(=O)[C@@H]1CCC(=O)N1)C(C)C` (single isomer, unassigned) [[Phe^8 .psi.[CH2 S(O)]Leu^9 ]litorin I] [pGlu--Gln--Trp--Ala--Val--Gly--His--Phe.psi.[CH2 S(O)]Leu--NH2], the “PI Turnover % Inhibition” value at Bombesin Receptor is recorded as 53%.

With `CC(C)C[C@@H](C(N)=O)[S+]([O-])C[C@H](Cc1ccccc1)NC(=O)[C@H](Cc1c[nH]cn1)NC(=O)CNC(=O)[C@@H](NC(=O)[C@H](C)NC(=O)[C@H](Cc1c[nH]c2ccccc12)NC(=O)[C@H](CCC(N)=O)NC(=O)[C@@H]1CCC(=O)N1)C(C)C` (single isomer, unassigned) [[Phe^8 .psi.[CH2 S(O)]Leu^9]litorin I, pGlu--Gln--Trp--Ala--Val--Gly--His--Phe.psi.[CH2 S(O)]Leu--NH2], the pKd at bombesin/GRP receptor (setting [1]) is 8.74. In the case of `CC(C)C[C@@H](C(N)=O)[S+]([O-])C[C@H](Cc1ccccc1)NC(=O)[C@H](Cc1c[nH]cn1)NC(=O)CNC(=O)[C@@H](NC(=O)[C@H](C)NC(=O)[C@H](Cc1c[nH]c2ccccc12)NC(=O)[C@H](CCC(N)=O)NC(=O)[C@@H]1CCC(=O)N1)C(C)C` (single isomer, unassigned) [[Phe^8 .psi.[CH2 S(O)]Leu^9]litorin II, pGlu--Gln--Trp--Ala--Val--Gly--His--Phe.psi.[CH2 S(O)]Leu--NH2], the pKd at bombesin/GRP receptor (setting [1]) was 9.00. `CC(=O)N[C@@H](CCC(N)=O)C(=O)N[C@@H](Cc1c[nH]c2ccccc12)C(=O)N[C@@H](C)C(=O)N[C@H](C(=O)N[C@H](C)C(=O)N[C@@H](Cc1c[nH]cn1)C(=O)N[C@@H](CC(C)C)C(N)=O)C(C)C` [Acetyl[D-Ala^11]bombesin(7-13)amide, Nα-acetyl-Gln--Trp--Ala--Val-D-Ala--His--Leu--NH2] (Ac-QWAV[dA]HL-NH2): at Bombesin Receptor, the “PI Turnover Agonist” value was “-” and the “PI Turnover % Inhibition” value worked out at 24%.

Consider `CCCCCCCCCCCC(=O)N[C@@H](CCC(N)=O)C(=O)N[C@@H](Cc1c[nH]c2ccccc12)C(=O)N[C@@H](C)C(=O)N[C@H](C(=O)N[C@H](C)C(=O)N[C@@H](Cc1c[nH]cn1)C(=O)N[C@@H](CC(C)C)C(N)=O)C(C)C` [Lauryl[D-Ala^11]bombesin(7-13)amide, Nα-lauryl-Gln--Trp--Ala--Val-D-Ala--His--Leu--NH2] (Lauroyl-QWAV[dA]HL-NH2), for which the “PI Turnover % Inhibition” value at Bombesin Receptor stood at 53%. On to `CSCC[C@H](NC(=O)[C@H](Cc1ccccc1)NC(=O)[C@H](Cc1c[nH]cn1)NC(=O)CNC(=O)[C@@H](NC(=O)[C@H](C)NC(=O)[C@H](Cc1c[nH]c2ccccc12)NC(=O)[C@H](CCC(N)=O)NC(=O)[C@@H]1CCC(=O)N1)C(C)C)C(N)=O` [Litorin, pGlu--Gin--Trp--Ala--Val--Gly--His--Phe--Met--NH2, reference compound], for which the pKd was 10.12 at bombesin/GRP receptor (setting [1]) and 10.00 on bombesin/GRP receptor (triplicate, in the presence of 40 pM 125I-GRP, LIGAND fit, read-out: Kd, single class of sites (FIG. 2)). Besides, the “PI Turnover Agonist” value at Bombesin Receptor is listed as “+”. Consider `CCCCCCCC(=O)N[C@@H](CCC(N)=O)C(=O)N[C@@H](Cc1c[nH]c2ccccc12)C(=O)N[C@@H](C)C(=O)N[C@H](C(=O)N[C@H](C)C(=O)N[C@@H](Cc1c[nH]cn1)C(=O)N[C@@H](CC(C)C)C(N)=O)C(C)C` [Octanoyl[D-Ala^11]bombesin(7-13)amide, Nα-octyl-Gln--Trp--Ala--Val-D-Ala--His--Leu--NH2] (Octanoyl-QWAV[dA]HL-NH2; N-terminus and C-terminus assumed), for which, at Bombesin Receptor, the “PI Turnover Agonist” value is recorded as “-”. `CCCCCCCCCCCCCCCC(=O)N[C@@H](CCC(N)=O)C(=O)N[C@@H](Cc1c[nH]c2ccccc12)C(=O)N[C@@H](C)C(=O)N[C@H](C(=O)N[C@H](C)C(=O)N[C@@H](Cc1c[nH]cn1)C(=O)N[C@@H](CC(C)C)C(N)=O)C(C)C` [Palmityl[D-Ala^11]bombesin(7-13)amide, Nα-palmityl-Gln--Trp--Ala--Val-D-Ala--His--Leu--NH2] (Palmitoyl-QWAV[dA]HL-NH2): the “PI Turnover % Inhibition” value at Bombesin Receptor was determined as 45%. With `CC(C)C[C@@H](CN[C@@H](CC(C)C)C(N)=O)NC(=O)[C@H](Cc1c[nH]cn1)NC(=O)CNC(=O)[C@@H](NC(=O)[C@H](C)NC(=O)[C@H](Cc1c[nH]c2ccccc12)NC(=O)[C@H](CCC(N)=O)NC(=O)[C@H](CC(N)=O)NC(=O)CNC(=O)[C@H](CC(C)C)NC(=O)[C@H](CCCNC(=N)N)NC(=O)[C@H](CCC(N)=O)NC(=O)[C@@H]1CCC(=O)N1)C(C)C` [[Leu^13 .psi.{CH2 NH]Leu^14]bombesin, pGlu--Gln--Arg--Leu--Gly--Asn--Gln--Trp--Ala--Val--Gly--His--Leu.psi.[CH2 N]Leu--NH2, reference compound] ([pGlu]QRLGNQWAVGH-X2), the “PI Turnover % Inhibition” value at Bombesin Receptor came to 30%.

Consider `CC(C)C[C@@H](CN[C@@H](CC(C)C)C(N)=O)NC(=O)[C@H](Cc1cnc[nH]1)NC(=O)CNC(=O)[C@@H](NC(=O)[C@H](C)NC(=O)[C@H](Cc1c[nH]c2ccccc12)NC(=O)[C@H](CCC(N)=O)NC(=O)[C@H](CC(N)=O)NC(=O)CNC(=O)[C@H](CC(C)C)NC(=O)[C@H](CCCN=C(N)N)NC(=O)[C@H](CCC(N)=O)NC(=O)[C@@H]1CCC(=O)N1)C(C)C` [[Leu^13 .psi.{CH2 NH]Leu^14]bombesin, pGlu--Gln--Arg--Leu--Gly--Asn--Gln--Trp--Ala--Val--Gly--His--Leu.psi.[CH2 N]Leu--NH2, reference compound] ([pGlu]QRLGNQWAVGH-X2), for which, at bombesin/GRP receptor (setting [1]), the pKd is 8.10.

Take `CC(C)C[C@H](SC[C@H](Cc1ccccc1)NC(=O)[C@H](Cc1c[nH]cn1)NC(=O)CNC(=O)[C@@H](NC(=O)[C@H](C)NC(=O)[C@H](Cc1c[nH]c2ccccc12)NC(=O)[C@H](CCC(N)=O)NC(=O)[C@@H]1CCC(=O)N1)C(C)C)C(N)=O` [[Phe^8 .psi.[CH2 S]Leu^9]litorin, pGlu--Gln--Trp--Ala--Val--Gly--His--Phe.psi.[CH2 S]Leu--NH2]: the “PI Turnover % Inhibition” value on Bombesin Receptor was 42%.

For the origin of these results see patent US5428019A, “Bombesin analogs” (Merrell Dow Pharmaceuticals Inc., priority 1994, dated 1995).
